Assay results: patent US8026257B2 (Bristol-Myers Squibb Company, priority 2007, dated 2011)
pIC50: −log10 of the molar value. Where two headings read alike, the source gives them in different places.

Legend:
[1] = biological target: T1, NK-1 (Homo sapiens, UniProt P25103); experiment: NK1 radioligand binding assay ([125I]Substance P, U373 membranes); conditions: U373 cell membranes, 200 pM [125I]Substance P, 1 hour at room temperature
T1 construct: 30 ul/well of a 2×U373 membrane preparation
Description: (§1) NK-1 Binding assay. Crude membrane suspensions were prepared for the NK1 and SERT radioligand binding assays from U373 cells or recombinant HEK-293 cells expressing hSERT, respectively. Cells were harvested from T-175 flasks as follows. The medium is removed from the flasks and the cells rinsed with HBSS without Ca and without Mg. The cells are then incubated for 5-10 minutes in 10 mM Tris-Cl, pH 7.5, 5 mM EDTA before the cells are lifted with a combination of pipetting and scraping, as needed. To prepare membranes, the cell suspension is collected into centrifuge bottles and homogenized for 30 seconds with a Polytron homogenizer. The suspension is centrifuged for 30 min@32,000×g, 4° C., then the supernatant is decanted and the pellet resuspended and homogenized in 50 mM Tris-Cl, pH 7.5, 1 mM EDTA for 10 seconds. The suspension is then centrifuged again for 30 min@32,000×g, 4° C. The supernatant is decanted and the pellet resuspended in 50 mM Tris-Cl, pH 7.5, 1 mM EDTA and briefly homogenized. A Bradford assay (Bio-rad) is performed and the membrane preparation diluted to 2 mg/ml with 50 mM Tris-Cl, pH 7.5, 1 mM EDTA. Aliquots are prepared, and then frozen and stored at −80° C.
NK1 radioligand binding assay. Compounds are dissolved in 100% DMSO at a concentration 100× the desired highest assay concentration, serially diluted 1:3 in 100% DMSO, and 0.6 ul/well of each solution is dispensed to a Nunc polypropylene, round bottom, 384 well plate. 100% inhibition is defined with 0.6 ul/well of 1 mM L-733,060 (Sigma L-137) dissolved in DMSO. 30 ul/well of a 2×U373 membrane preparation (267 ug/ml in 100 mM Tris-Cl, pH 7.5, 6 mM MgCl2, 0.2% (v/v) Sigma mammalian protease inhibitor cocktail (Sigma P-8340), and 4 ug/ml chymostatin, Sigma C-7268) and 30 ul/well of a 2× radioligand solution (400 pM [^125I]Substance P (Perkin ElmerNEX-190) in 1% (w/v) BSA (Sigma A-2153), 0.1 mg/ml bacitracin, Sigma B-0125) are added to the well and the reaction incubated for 1 hour at room temperature. The contents of the assay plate are then transferred to a Millipore MultiscreenHTS GF/B filter plate which has been pretreated with 0.5% PEI for at least one hour. The plate is vacuum filtered and washed with 7 washes of 100 ul/well of 20 mM Tris-Cl, pH 7.5, 0.5% (w/v) BSA chilled to 4° C. The filtration and washing is completed in less than 90 s. The plates are air-dried overnight, 12 ul/well of MicroScint scintillation fluid added, and the plates counted in a Trilux.
(§2) Data analysis. The raw data are normalized to percent inhibition using control wells defining 0% (DMSO only) and 100% (selective inhibitor) inhibition which are run on each plate. Each plate is run in triplicate, and the concentration response curve thus generated is fit using the four-parameter dose response equation, Y=Bottom+(Top-Bottom)/(1+10^((LogIC50−X)*HillSlope)) in order to determine the IC50 value for each compound. The radioligand concentration chosen for each assay corresponds to the Kd concentration determined through saturation binding analysis for each assay.

[2] = biological target: hSERT (Homo sapiens, UniProt P31645); experiment: SERT radioligand binding assay ([125I]RTI-55, HEK-hSERT membranes); conditions: HEK-293 hSERT membranes, 260 pM [125I]RTI-55, 1 hour at room temperature; for pIC50: read-out: SERT IC50
Description: as §1
SERT radioligand binding assay. Compounds are dissolved in 100% DMSO at a concentration 100× the desired highest assay concentration, serially diluted 1:3 in 100% DMSO, and 0.4 ul/well of each solution is dispensed to a Nunc polypropylene, round bottom, 384 well plate. 100% inhibition is defined with 0.4 ul/well of 1 mM fluoxetine (Sigma F-132) dissolved in DMSO. 20 ul/well of a 2× HEK-hSERT membrane preparation (15 ug/ml in 50 mM Tris-Cl, pH 7.5, 120 mM NaCl, 5mM KCl) and 20 ul/well of a 2× radioligand solution (520 pM [^125I]RTI-55 (Perkin-Elmer NEX-272) in 50 mM Tris-Cl, pH 7.5, 120 mM NaCl, 5mM KCl) are added to each well and the reaction incubated for 1 hour at room temperature. The contents of the assay plate are then transferred to a Millipore MultiscreenHTs GF/B filter plate which has been pretreated with 0.5% PEI for at least one hour. The plate is vacuum filtered and washed with 7 washes of 100 ul/well of 50 mM Tris-Cl, pH 7.5, 120 mM NaCl, 5 mM KCl chilled to 4° C. The filtration and washing is completed in less than 90 s. The plates are air-dried overnight, 12 ul/well of MicroScint scintillation fluid added, and the plates counted in a Trilux.
as §2

Sequence of hSERT (P31645 whole entry): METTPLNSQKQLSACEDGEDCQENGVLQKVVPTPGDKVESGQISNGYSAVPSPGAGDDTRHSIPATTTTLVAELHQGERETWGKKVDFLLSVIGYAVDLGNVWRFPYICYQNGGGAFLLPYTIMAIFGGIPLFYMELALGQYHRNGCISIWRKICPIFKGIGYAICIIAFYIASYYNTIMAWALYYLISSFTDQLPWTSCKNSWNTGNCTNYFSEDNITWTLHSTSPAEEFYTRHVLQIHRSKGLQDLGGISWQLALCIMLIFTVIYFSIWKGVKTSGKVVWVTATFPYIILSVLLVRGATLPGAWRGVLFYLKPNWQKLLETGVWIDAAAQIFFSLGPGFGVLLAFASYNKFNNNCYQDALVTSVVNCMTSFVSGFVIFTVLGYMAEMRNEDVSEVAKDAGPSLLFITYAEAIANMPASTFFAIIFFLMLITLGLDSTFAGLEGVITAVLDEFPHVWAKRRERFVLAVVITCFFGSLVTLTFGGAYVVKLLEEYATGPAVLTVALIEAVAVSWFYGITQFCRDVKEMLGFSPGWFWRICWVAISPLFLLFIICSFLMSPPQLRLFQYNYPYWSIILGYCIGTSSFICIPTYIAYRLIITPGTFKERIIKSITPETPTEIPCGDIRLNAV
T1 sequence (P25103 whole entry): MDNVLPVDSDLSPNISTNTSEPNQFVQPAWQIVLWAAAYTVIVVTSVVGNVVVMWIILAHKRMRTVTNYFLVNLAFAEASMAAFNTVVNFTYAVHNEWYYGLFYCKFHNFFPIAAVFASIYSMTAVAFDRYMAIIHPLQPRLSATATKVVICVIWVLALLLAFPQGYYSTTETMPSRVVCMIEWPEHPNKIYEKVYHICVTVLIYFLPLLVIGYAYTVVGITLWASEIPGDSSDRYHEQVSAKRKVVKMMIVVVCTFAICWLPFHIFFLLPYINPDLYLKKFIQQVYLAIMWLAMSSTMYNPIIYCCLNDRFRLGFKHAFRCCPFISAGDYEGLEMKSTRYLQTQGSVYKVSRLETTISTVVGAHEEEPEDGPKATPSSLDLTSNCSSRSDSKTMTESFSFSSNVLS

Row | SMILES | pIC50 [1] | pIC50 [2] | IC50 ([2]; SERT IC50 (nM)) [nM]
1 | CC(OCC1(c2ccc(F)cc2)CCN(C)CC1)c1cc(F)cc2cn[nH]c12 (racemic) [Example 53, (±)-5-Fluoro-7-(1-((4-(4-fluorophenyl)-1-methylpiperidin-4-yl)methoxy)ethyl)-1H-indazole] | 7.00 to 11.00 | 7.00 to 11.00 | –
2 | CN1CCC(COCc2nc3ccc(Br)cc3n2CC2CC2)(c2ccccc2)CC1 [Example 83, 6-Bromo-1-(cyclopropylmethyl)-2-(((1-methyl-4-phenylpiperidin-4-yl)methoxy)methyl)-1H-benzo[d]imidazole] | < 6.52 | 7.00 to 11.00 | –
3 | CC(OCC1(c2ccc(F)cc2)CCN(C)CC1)c1cc(N2CCOCC2)cc2cn[nH]c12 (racemic) [Example 50, (±)-4-7-(1-((4-(4-Fluorophenyl)-1-methylpiperidin-4-yl)methoxy)ethyl)-1H-indazole-5-yl)morpholino] | 6.52 to 7.00 | 7.00 to 11.00 | –
4 | Cn1cc2cc(C(F)(F)F)cc(COCC3(c4ccccc4)CCNCC3)c2n1 [Example 12, 2-Methyl-7-(((4-phenylpiperidin-4-yl)methoxy)methyl)-5-(trifluoromethyl)-2H-indazole] | 7.00 to 11.00 | 7.00 to 11.00 | –
5 | CN1CCC(COCc2cc(C(F)(F)F)cc3[nH]ccc23)(c2ccccc2)CC1 [Example 76, 4-(((1-Methyl-4-phenylpiperidin-4-yl)methoxy)methyl)-6-(trifluoromethyl)-1H-indole 2,2,2-trifluoroacetate] | 7.00 to 11.00 | 7.00 to 11.00 | –
6 | CC(OCC1(c2ccc(F)cc2)CCN(C)CC1)c1cc(C2CC2)cc2c(Cl)n[nH]c12 (single isomer, unassigned) [Example 54] | 7.00 to 11.00 | – | 0.01 to 100
7 | Cc1cc(C(C)OCC2(c3ccc(F)cc3)CCN(C)CC2)c2c(cnn2CC2CC2)c1 (racemic) [Example 62, (±)-1-(Cyclopropylmethyl)-7-(1-((4-(4-fluorophenyl)-1-methylpiperidin-4-yl)methoxy)ethyl)-5-methyl-1H-indazole] | 7.00 to 11.00 | 7.00 to 11.00 | –
8 | CC(OCC1(c2ccccc2)CCNCC1)c1cc(C(F)(F)F)cc2cn[nH]c12 (racemic) [Example 20, (±)-7-(1-((4-Phenylpiperidin-4-yl)methoxy)ethyl)-5-(trifluoromethyl)-1H-indazole] | 7.00 to 11.00 | 7.00 to 11.00 | –
9 | C[C@@H](OCC1(c2ccc(F)cc2)CCN(C)CC1)c1cc(Cl)cc2cn(CC#N)nc12 [Example 107, (R)-2-(5-chloro-7-(1-((4-(4-fluorophenyl)-1-methylpiperidine-4-yl)methoxy)ethyl)-2H-indazole-2-yl)acetonitrile] | 7.00 to 11.00 | 7.00 to 11.00 | –
10 | CN1CCC(COCc2cc(C(F)(F)F)cc3cnn(C)c23)(c2ccccc2)CC1 [Example 13, 1-Methyl-7-(((1-methyl-4-phenylpiperidin-4-yl)methoxy)methyl)-5-(trifluoromethyl)-1H-indazole] | 7.00 to 11.00 | 7.00 to 11.00 | –
11 | C[C@@H](OCC1(c2ccc(F)cc2)CCN(C)CC1)c1cc(Cl)cc2cnn(CC3CC3)c12 [Example 106, (R)-5-chloro-1-(cyclopropylmethyl)-7-(1-((4-(4-fluorophenyl)-1methylpiperidin-4-yl)methoxy)ethyl)-1H-indazole] | 7.00 to 11.00 | 7.00 to 11.00 | –
12 | C[C@@H](OCC1(c2ccccc2)CCN(C)CC1)c1cc(Cl)cc2c(Br)n[nH]c12 [Example 118, (R)-3-bromo-5-chloro-7-(1-((1-methyl-4-phenylpiperidin-4yl)methoxy)ethyl)-1H-indazole] | 7.00 to 11.00 | 7.00 to 11.00 | –
13 | CC(OCC1(c2ccc(F)cc2)CCNCC1)c1cc(C(F)(F)F)cc2cn[nH]c12 (single isomer, unassigned) [Example 24, 7-(1-((4-(4-Fluorophenyl)piperidin-4-yl)methoxy)ethyl)-5-(trifluoromethyl)-1H-indazole] | 7.00 to 11.00 | 7.00 to 11.00 | –
14 | Cc1cc(C(C)OCC2(c3ccc(F)cc3)CCN(C)CC2)c2c(cnn2C2CC2)c1 (racemic) [Example 64, (±)-1-Cyclopropyl-7-(1-((4-(4-fluorophenyl)-1-methylpiperidin-4-yl)methoxy)ethyl)-5-methyl-1H-indazole] | 7.00 to 11.00 | 7.00 to 11.00 | –
15 | C[C@@H](OCC1(c2ccc(F)cc2)CCNCC1)c1cc(Cl)cc2cn(CC3CC3)nc12 [Example 104] | 7.00 to 11.00 | 7.00 to 11.00 | –
16 | Cc1cc(COCC2(c3ccccc3)CCNCC2)c2[nH]ncc2c1 [Example 6, 5-Methyl-7-(((4-phenylpiperidin-4-yl)methoxy)methyl)-1H-indazole] | 7.00 to 11.00 | 7.00 to 11.00 | –
17 | CC(OCC1(c2ccc(F)cc2)CCN(C)CC1)c1cc(Br)cc2cn[nH]c12 (racemic) [Example 46, (±)-5-Bromo-7-(1-((4-(4-fluorophenyl)-1-methylpiperidin-4-yl)methoxy)ethyl)-1H-indazole] | 7.00 to 11.00 | 7.00 to 11.00 | –
18 | C[C@@H](OCC1(c2ccc(F)cc2)CCNCC1)c1cc(Cl)cc2c(Cl)n[nH]c12 [Example 99, (R)-3,5-Dichloro-7-(1-((4-(4-fluorophenyl)piperidin-4-yl)methoxy)ethyl)-1H-indazole] | 7.00 to 11.00 | 7.00 to 11.00 | –
19 | CC(OCC1(c2ccccc2)CCN(C)CC1)c1cc(Br)cc2c1ncn2CC1CC1 (single isomer, unassigned) [Example 130] | < 6.52 | 7.00 to 11.00 | –
20 | Cc1cc(C(C)OCC2(c3ccc(F)cc3)CCN(C)CC2)c2[nH]ncc2c1 (racemic) [Example 49, (±)-7-(1-((4-(4-Fluorophenyl)-1-methylpiperidin-4-yl)methoxy)ethyl)-5-methyl-1H-indazole] | 7.00 to 11.00 | 7.00 to 11.00 | –
21 | Cn1cc2cc(C(F)(F)F)cc(COCC3(c4ccc(F)cc4)CCNCC3)c2n1 [Example 18, 7-(((4-(4-Fluorophenyl)piperidin-4-yl)methoxy)methyl)-2-methyl-5-(trifluoromethyl)-2H-indazole] | 7.00 to 11.00 | 7.00 to 11.00 | –
22 | CN1CCC(COCc2cc(C(F)(F)F)cc3c2nnn3C)(c2ccc(F)cc2)CC1 [Example 80, 4-(((4-(4-Fluorophenyl)-1-methylpiperidin-4-yl)methoxy)methyl)-1-methyl-6-(trifluoromethyl)-1H-benzo[d][1,2,3]triazole] | 6.52 to 7.00 | 7.00 to 11.00 | –
23 | Cc1cc(COCC2(c3ccccc3)CCNCC2)cc2cn[nH]c12 [Example 1, 7-Methyl-5-(((4-phenylpiperidin-4-yl)methoxy)methyl)-1H-indazole] | < 6.52 | 7.00 to 11.00 | –
24 | c1ccc(C2(COCc3cccc4cn[nH]c34)CCNCC2)cc1 [Example 34, 7-(((4-Phenylpiperidin-4-yl)methoxy)methyl)-1H-indazole] | 6.52 to 7.00 | 7.00 to 11.00 | –
